Results published in US7202040B2, “Method for screening compounds which change the binding properties of a protein with a ligand” (Takeda Pharmaceutical Company Limited, priority 2001, dated 2007).

Key:
[1] = molecular target: T1, GPR34-expressed CHO cells (Homo sapiens, UniProt Q9UPC5); assay: Intracellular cAMP production inhibitory activity using GPR34-expressed CHO cells (forskolin-stimulated, cAMP EIA); assay type: cell-based; settings: 2 μM forskolin, FIG. 1
T1 construct: expressed in transfected cells
T1 sequence (Q9UPC5 whole entry): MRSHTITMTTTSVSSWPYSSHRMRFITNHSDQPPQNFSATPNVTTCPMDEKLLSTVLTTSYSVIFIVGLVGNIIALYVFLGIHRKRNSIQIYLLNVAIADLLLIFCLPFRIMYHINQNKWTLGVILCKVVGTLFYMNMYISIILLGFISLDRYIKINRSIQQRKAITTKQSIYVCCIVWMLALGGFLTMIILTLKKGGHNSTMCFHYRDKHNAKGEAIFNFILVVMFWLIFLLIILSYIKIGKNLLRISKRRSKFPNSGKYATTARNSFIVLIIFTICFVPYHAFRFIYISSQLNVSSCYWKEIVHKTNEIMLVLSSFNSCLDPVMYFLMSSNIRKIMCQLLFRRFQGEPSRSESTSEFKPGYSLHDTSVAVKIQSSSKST
Method: The GPR34-expressed CHO cells prepared in (1-2) described above and selected in (1-2) described above were plated on a 24-well plate in 6×10^4 cells/well followed by incubation for 48 hours. The cells were washed with αMEM medium (pH 7.5) containing 0.2 mM 3-isobutyl-methylxanthine, 0.05% BSA and 20 mM HEPES (hereinafter αMEM medium (pH 7.5) containing 0.2 mM 3-isobutyl-methylxanthine, 0.05% BSA and 20 mM HEPES is referred to as the reaction buffer). Thereafter, 0.5 mL of the reaction buffer was added and the mixture was kept warm for 30 minutes in an incubator. The reaction buffer was removed and 0.25 mL of fresh reaction buffer was replenished to the cells. Then, 0.25 mL of the reaction buffer containing a sample and 2 μM forskolin was added to the cells, followed by reacting at 37° C. for 30 minutes. […] The cAMP level in the extract was quantified using the same kit. Based on this measurement data, the cAMP production inhibitory activity was calculated based on the equation shown below and expressed in terms of percentage to the control group. The activity in the group added with sample was calculated using each control value set on the same plate. % of control=(X−C)/(T−C)×100 wherein • X: cAMP level in the group added with sample • T: mean value of the cAMP levels in 3 wells of the groups without sample addition and with forskolin stimulation […]

[2] = tested on: other receptor expression cells; assay: cAMP production inhibitory activity on other receptor expression cells (specificity check); assay type: cell-based; settings: receptor-specific
Method: The amino acid sequence of GPR34 is known to have low homology to the amino acid sequence of the platelet-activating factor receptor or the uridine diphosphate glycoside. Thus, various compounds including platelet-activating factor and uridine diphosphate glycoside, which are ligands to the receptors showing homology to GPR34, were administered to the GPR34-expressed CHO cells to examine the cAMP production inhibitory activity of these compounds on the GPR34-expressed CHO cells by the method shown in (1-4) described above.
The effect was not noted on the other receptor expression cells but was receptor-specific.

Row | cAMP production inhibitory activity ([1]; in a higher concentration) | Substance | cAMP production inhibitory activity ([1]; 37° C. 30 minutes) | cAMP production inhibitory effect on other receptor expression cells [2]
1 |  | lysophosphatidylserine | marked activities | not noted
2 | marked activities | phosphatidylserine |  | not noted
